In PMC6222706, “Evaluation of the Antioxidant and Neuroprotectant Activities of New Asymmetrical 1,3-Diketones” (Molecules : A Journal of Synthetic Chemistry and Natural …, 2018):
Converted amounts (≈) assume the structure as drawn.

Assays:
[1] = Cytotoxicity in SH-SY5Y cells (MTT); assay type: cell-based; conditions: human, SH-SY5Y neuronal cells, concentration reducing cell viability to 50% of control
Procedure: So, to study the neuroprotectant potential of β-diketones in the SH-SY5Y cell line, we firstly need to determine their cytotoxicity in the same cellular model. […] In addition to that, within each series, the introduction of a second fluorine atom in the left-hand side phenyl ring decreases also the cytotoxicity.
SH-SY5Y cells were seeded into 96-well plates at a density of 5 × 10^3 cells/well and grown in the incubator for 24 h. All compounds tested were dissolved and eventually further diluted in dimethylsulfoxide (DMSO). After overnight incubation, the cells were treated with different test concentrations (5, 10, 20, 50, 100, 150, 200 µM) in a final volume of 200 µL with four replicates each. […] Cell proliferation or viability was measured using the 3-(4,5-dimethylthiazol-2-yl)-2,5-diphenyl tetrazolium bromide (MTT) assay. After 24 h, 20 µL of MTT (5 mg/mL) was added to each well and the plate was incubated at 37 °C in the dark for 2 h. Supernatants were removed and the formazan crystals were solubilized in DMSO (200 µL/well), under 10 min shaking at room temperature. The reduction of MTT was quantified by absorbance at 570 nm Varioskan microplate reader (Thermo Fisher Scientific, Vantaa, Finland). Effects of the test compounds on cell viability were calculated using cells treated with vehicle as control. The data were subjected to linear regression analysis and the regression lines were plotted for the best fit. The IC50 (inhibition of cell viability) concentrations were calculated using the respective dose-response curves.

[2] = Kinetic solubility by UV spectrometry in 10 mM PBS; assay type: physicochemical; conditions: 10 mM phosphate buffered saline, aqueous buffer, kinetic from dmso stock
Procedure: Among the most important physicochemical parameters in drug-discovery, solubility and chemical stability in aqueous media are the determinants for non-toxic and brain-permeable drug-like compounds with good bioavailability. So, compounds with good aqueous solubility are the best candidates for drug-discovery progression. […] The assays were performed at room temperature, in 10 mM Phosphate Buffered Saline (PBS) from compound stocks in DMSO at 20 mM concentration.
A modified protocol was used from that described by Hoelke et al. for the determination of the kinetic solubility from DMSO compound solutions. A compound calibration curve (compound concentration vs. UV absorption) was prepared on a 48 well plate for each compound with concentrations in the range of 10 µM to […]. Each compound dilution was carried out by pipetting defined volumes of a 20 mM stock compound solution in DMSO into the wells and adding PBS 10 mM to reach a final volume of 500 µL/well. The final amount of DMSO per well was 2%. For the lower compound concentrations, an additional volume of DMSO was added into each well to reach the 2% of DMSO. Then, 200 µL of each dilution was transferred to a new 96 well plate for the measurement of the UV-spectra. One well in each row was left without compound as a blank and its UV absorbance was used as an offset correction. The experiments were carried out by duplicate.
(§1) In parallel compound saturation solutions were obtained and filtered from 20 mM compound stock in DMSO. So, 10 µL of 20 mM stock solution were dispensed to 190 µL of PBS 10 mM. The solutions were mixed, shaken in a microplate shaker for two hours, and then 160 µL of each solution were filtered and transferred to a new well plate for UV absorption measure. The compound stability in PBS 10 mM was determined at 24, 48 and 72 h with solutions prepared as those for the compound calibration curve.
Measurement of the UV-spectra was performed using a Varioskan microplate reader and spectra were taken in the range of 270–600 nm. Spectral bandwidth was set to 5 nm and the data pint interval was 10 nm. […]

[3] = Chemical stability in 10 mM PBS; assay type: physicochemical; conditions: 6b, 7b at 400 µM, curcumin at 50 µM
Procedure: It is also important to know compound integrity at those concentrations used in biological assays, and for that, the chemical stability was determined in 10 mM PBS after 6 h, 24 h and 48 h.
as §1

[4] = Iron chelation capacity (Fe^+2-ferrozine complex); assay type: biochemical; conditions: aqueous media; for Fe^2+ binding capacity: 50 µM compound; for Fe^2+ chelating capacity: 200 µM compound
Procedure: To decrease the level of free Fe^2+ that can reduce H2O2 to the ^•OH radical and produce other ROS, it is worth to evaluate the iron chelation capacity of new potential AOX compounds as potential new therapeutic agents against neurodegenerative diseases. […] In this assay ferrozine form complexes with Fe^+2 in a quantitative manner, and in the presence of chelating compounds this complex is disrupted.
The iron chelation capacity was determined according to the method of Dinis et al., using ferrous chloride instead of ferrous sulfate. In this method, ferrozine can form complexes with a ferrous ion in a quantitative way yielding a red color with maximum absorbance at 562 nm. In the presence of other iron chelators, a decoloration is observed due to the competition with ferrozine for the metal. The assay was carried out in a 96 well plate. Serial dilutions of test compound (0, 5, 10, 25, 50, 100, 150, 200 µM) were dispensed (180 µL) into each well and then 10 µL of FeCl2 1 mM were added (final FeCl2 concentration, […]). After shaking the plate for 1 min, 10 µL of Ferrozine 2 mM were added. The mixture was shaken thoroughly and left to stand for 20 min at room temperature. The absorbance was measured at 562 nm with a Varioskan microplate reader. […] The compound iron chelation activity was calculated as the percentage of inhibition of the Fe^+2-Ferrozine complex by the formula in Equation (3):%Inhibition = {(Ao − As)/Ao} × 100(3) where Ao is the absorbance of the control, and As is the absorbance in the presence of the test compound. EDTA was used as a positive control. All the experiments were performed three times by quadruplicate for each compound concentration.

solubility at 2 h [2]	Remaining Compound (%) 0 h [3]	Remaining Compound (%) 6 h [3]	Remaining Compound (%) 24 h [3]	Remaining Compound (%) 48 h [3]	Structure (SMILES)	IC50 at 24 h [1]	Fe^2+ binding capacity [4]	Fe^2+ chelating capacity [4]
0.281 ± 0.009 mg/mL (≈ 955 µM)	100%	96.1 ± 0.5%	92.2 ± 1.6%	90.4 ± 3.0%	O=C(/C=C(O)/C=C/c1cc(F)c(O)cc1F)C(F)(F)F [Compound 6b, (3Z,5E)-6-(2,5-difluoro-4-hydroxyphenyl)-1,1,1-trifluoro-4-hydroxyhexa-3,5-dien-2-one]	187 ± 13.2 µM	7–8%	25–26%
0.298 ± 0.007 mg/mL (≈ 1010 µM)	100%	95.7 ± 1.0%	90.9 ± 1.2%	87.8 ± 2.3%	O=C(/C=C(O)/C=C/c1ccc(O)c(F)c1F)C(F)(F)F [Compound 7b, (3Z,5E)-6-(2,3-Difluoro-4-hydroxyphenyl)-1,1,1-trifluoro-4-hydroxyhexa-3,5-dien-2-one]	200 ± 17.1 µM	7–8%	25–26%
